Results: patent US20230382940A1, “ANTIVIRAL COMPOUNDS AND METHODS OF MAKING AND USING THE SAME” (Gilead Sciences, Inc., priority 2022, published 2023)
Read-outs that look alike come from different tables or passages of the source.

Key:
[1] = test system: Respiratory syncytial virus recombinant with luciferase (RSV-Luc5); test: NHBE RSV-Luc5 384-well assay (EC50 RSVFLUC NHBE-384 v2), Example W; type: cell-based; details: human respiratory syncytial virus, 72 h, read-out: EC50 RSV FLUC NHBE 384 V2 (per Ex. W)
Description: Example W: NHBE RSV-Luc5 384-Well Assay (EC50 RSVFLUC NHBE-384 v2)
Normal Human Bronchial Epithelial (NHBE) cells were purchased from Lonza (Walkersville, MD Cat #CC2540) and maintained in BEGM Bronchial Epithelial Cell Growth Medium BulletKit (Lonza CC-3170).
Cells were thawed, expanded, and were used for experiments at passage 2. Respiratory syncytial virus recombinant with luciferase (RSV-Luc5) (≥1×10^7 Infectious Units/mL (IU/mL) determined by TCID50) was purchased from Microbiologics (Saint Cloud, MN). Viral replication was determined in NHBE cells in the following manner.
(§1) Compounds are prepared in 100% DMSO in 384-well polypropylene plates (Greiner, Monroe, NC, Cat #784201) with 8 compounds per plate in grouped replicates of 4 at 10 serially diluted concentrations (1:3). The serially diluted compounds were transferred to low dead volume Echo plates (Labcyte, Sunnyvale, CA, Cat #LP-0200).
The test compounds were spotted to 384-well assay plates (Greiner, Monroe, NC, Cat #781091) at 200 nL per well using an Echo acoustic dispenser (Labcyte, Sunnyvale, CA). NHBE cells were harvested and suspended in BEGM Bronchial Epithelial Cell Growth Medium BulletKit and seeded to the pre-spotted assay plates at 5,000 cells per well in 30 μL. RSV-Luc5 virus was diluted in BEGM Bronchial Epithelial Cell Growth Medium BulletKit at 500,000 Infectious Units (IU) per mL and 10 μL per well was added to the assay plates containing cells and compounds, for an MOI of 1. The assay plates were incubated for 3 days at 37° C. and 5% CO2. At the end of incubation, One-Glo reagent (Promega, Madison, WI, Cat #E6120) was prepared. The assay plates and One-Glo reagent were equilibrated to room temperature for at least 15 minutes. 40 μL per well of One-Glo reagent was added and the plates were incubated at room temperature for 15 minutes before reading the luminescence signal on an EnVision multimode plate reader (Perkin Elmer, Waltham, MA). Remdesivir was used as positive control and DMSO was used as negative control. Values were normalized to the positive and negative controls (as 0% and 100% replication, respectively) and data was fitted using non-linear regression analysis by Gilead's dose response tool. The EC50 value for each compound was defined as the concentration reducing the viral replication by 50%.

[2] = test system: Human Rhinovirus 16 (HRV16); test: H1-HeLa HRV-CTG 384-well assay, HRV16, Example X; type: cell-based; details: Rhinovirus A, 96 h, read-out: EC50 H1-HeLa_HRV 16_HRV-CTG 384-well Assay (per Ex. X)
Description: Example X: H1-HeLa HRV-CTG 384-Well Assay
H1-Hela cell line (ATCC, Manassas, VA, Cat #CRL-1958) was maintained in Dulbecco's […] (DMEM) (Corning, New York, NY, Cat #15-018CM) supplemented with 10% fetal bovine serum (FBS) (Hyclone, Logan, UT, Cat #SH30071-03), and 1× Penicillin-Streptomycin-L-Glutamine (Corning, New York, NY, Cat #30-009-CI). Cells were passaged 2 times per week to maintain sub-confluent densities and were used for experiments at passage 5-30. The Human Rhinovirus 1B (HRV1B) (ATCC, Manassas, VA, Cat #VR-1645), Human Rhinovirus 14 (HRV14) (ATCC, Manassas, VA, Cat #VR-284), and Human Rhinovirus 16 (HRV16) (ATCC, Manassas, VA, Cat #BR-283) was obtained through ATCC. Viral infection was monitored by determining viability of H1-HeLa cells as described below.
as §1, with “Test molecules” for “Compounds”
The test compounds were spotted to 384-well assay plates (Greiner, Monroe, NC, Cat #781091) at 200 nL per well using an Echo acoustic dispenser (Labcyte, Sunnyvale, CA). H1-HeLa cells were harvested and suspended in DMEM (supplemented with 2% FBS and 1× Penicillin-Streptomycin-L-Glutamine) and seeded to the pre-spotted assay plates at 5,000 cells per well in 30 μL. HRV1B, HRV14, and HRV16 was diluted in DMEM (supplemented with 2% FBS and 1× Penicillin-Streptomycin-L-Glutamine) at 97.1 million Infectious Units (IU) per mL, 151 million IU per mL and 221 million IU per mL respectively. 10 μL of virus per well was added to the assay plates containing cells and compounds, for an MOI of 0.5, 1.0, and 0.25 respectively. The assay plates were incubated for 4 days at 37° C. and 5% CO2. At the end of incubation, Celltiter-Glo (Promega, Madison, WI, Cat #G7573) was prepared. The assay plates and Celltiter-Glo reagent were equilibrated to room temperature for at least 15 minutes. 40 μL per well of Celltiter-Glo reagent was added and the plates were incubated at room temperature for 15 minutes before reading the luminescence signal on an EnVision multimode plate reader (Perkin Elmer, Waltham, MA). Rupintrivir was used as positive control and DMSO was used as negative control. Values were normalized to the positive and negative controls (as 0% and 100% replication, respectively) and data was fitted using non-linear regression analysis by Gilead's dose response tool. The EC50 value for each compound was defined as the concentration reducing viral replication by 50%.

[3] = H1-HeLa cells, HRV16 MOI 0.25, 4 days, Celltiter-Glo

| Compound | EC50 [1] | EC50 [2, 3] | EC50 ([2]; HRV16, H1-HeLa) |
| --- | --- | --- | --- |
| CCC(CC)COC(=O)OC[C@@]1(C#N)O[C@@H](c2ccc3c(N)ncnn23)[C@H](O)[C@@H]1O [Compound 31, ((2R,3S,4R,5S)-5-(4-aminopyrrolo[2,1-f][1,2,4]triazin-7-yl)-2-cyano-3,4-dihydroxytetrahydrofuran-2-yl)methyl (2-ethylbutyl) carbonate] | 8.65 µM | 9.07 µM | – |
| CC1(C)CC(OC(=O)OC[C@@]2(C#N)O[C@@H](c3ccc4c(N)ncnn34)[C@H](O)[C@@H]2O)C1 [Compound 37, ((2R,3S,4R,5S)-5-(4-aminopyrrolo[2,1-f][1,2,4]triazin-7-yl)-2-cyano-3,4-dihydroxytetrahydrofuran-2-yl)methyl (3,3-dimethylcyclobutyl) carbonate] | 7.44 µM | 12.6 µM | – |
| COC[C@@H](C)OC(=O)OC[C@@]1(C#N)O[C@@H](c2ccc3c(N)ncnn23)[C@H](O)[C@@H]1O [Compound 38, ((2R,3S,4R,5S)-5-(4-aminopyrrolo[2,1-f][1,2,4]triazin-7-yl)-2-cyano-3,4-dihydroxytetrahydrofuran-2-yl)methyl ((R)-1-methoxypropan-2-yl) carbonate] | 7.61 µM | 40 µM | – |
| N#C[C@]1(COC(=O)OC2CCCCC2)O[C@@H](c2ccc3c(N)ncnn23)[C@H](O)[C@@H]1O [Compound 21, ((2R,3S,4R,5S)-5-(4-aminopyrrolo[2,1-f][1,2,4]triazin-7-yl)-2-cyano-3,4-dihydroxytetrahydrofuran-2-yl)methyl cyclohexyl carbonate] | 7 µM | 26.7 µM | – |
| CC(C)OC(=O)OC[C@@]1(C#N)O[C@@H](c2ccc3c(N)ncnn23)[C@H](O)[C@@H]1O [Compound 11, ((2R,3S,4R,5S)-5-(4-aminopyrrolo[2,1-f][1,2,4]triazin-7-yl)-2-cyano-3,4-dihydroxytetrahydrofuran-2-yl)methyl isopropyl carbonate] | 12 µM | 37.4 µM | – |
| CC(C)COC(=O)Nc1ncnn2c([C@@H]3O[C@](C#N)(CO)[C@@H](O)[C@H]3O)ccc12 [Compound 16, Isobutyl (7-((2S,3R,4S,5R)-5-cyano-3,4-dihydroxy-5-(hydroxymethyl)tetrahydrofuran-2-yl)pyrrolo[2,1-f][1,2,4]triazin-4-yl)carbamate] | 50 µM | 50 µM | – |
| N#C[C@]1(COC(=O)OC2CCC2)O[C@@H](c2ccc3c(N)ncnn23)[C@H](O)[C@@H]1O [Compound 17, ((2R,3S,4R,5S)-5-(4-aminopyrrolo[2,1-f][1,2,4]triazin-7-yl)-2-cyano-3,4-dihydroxytetrahydrofuran-2-yl)methyl cyclobutyl carbonate] | 5.96 µM | 15.1 µM | – |
| N#C[C@]1(COC(=O)O[C@H]2CCOC2)O[C@@H](c2ccc3c(N)ncnn23)[C@H](O)[C@@H]1O [Compound 33, ((2R,3S,4R,5S)-5-(4-aminopyrrolo[2,1-f][1,2,4]triazin-7-yl)-2-cyano-3,4-dihydroxytetrahydrofuran-2-yl)methyl ((S)-tetrahydrofuran-3-yl) carbonate] | 8.01 µM | 18.5 µM | – |
| CC(C)(C)OC(=O)OC[C@@]1(C#N)O[C@@H](c2ccc3c(N)ncnn23)[C@H](O)[C@@H]1O [Compound 13, ((2R,3S,4R,5S)-5-(4-aminopyrrolo[2,1-f][1,2,4]triazin-7-yl)-2-cyano-3,4-dihydroxytetrahydrofuran-2-yl)methyl tert-butyl carbonate] | 10.8 µM | – | 7.67 µM |
| CC(C)CCOC(=O)OC[C@@]1(C#N)O[C@@H](c2ccc3c(N)ncnn23)[C@H](O)[C@@H]1O [Compound 7, ((2R,3S,4R,5S)-5-(4-aminopyrrolo[2,1-f][1,2,4]triazin-7-yl)-2-cyano-3,4-dihydroxytetrahydrofuran-2-yl)methyl isopentyl carbonate] | 13.9 µM | 9.13 µM | – |
| CCC(CC)OC(=O)OC[C@@]1(C#N)O[C@@H](c2ccc3c(N)ncnn23)[C@H](O)[C@@H]1O [Compound 14, ((2R,3S,4R,5S)-5-(4-aminopyrrolo[2,1-f][1,2,4]triazin-7-yl)-2-cyano-3,4-dihydroxytetrahydrofuran-2-yl)methyl pentan-3-yl carbonate] | 14.9 µM | 50 µM | – |
| N#C[C@]1(COC(=O)OCC2CCCC2)O[C@@H](c2ccc3c(N)ncnn23)[C@H](O)[C@@H]1O [Compound 30, ((2R,3S,4R,5S)-5-(4-aminopyrrolo[2,1-f][1,2,4]triazin-7-yl)-2-cyano-3,4-dihydroxytetrahydrofuran-2-yl)methyl (cyclopentylmethyl) carbonate] | 7.54 µM | 8.88 µM | – |
| COC(=O)OC[C@@]1(C#N)O[C@@H](c2ccc3c(N)ncnn23)[C@H](O)[C@@H]1O [Compound 6, ((2R,3S,4R,5S)-5-(4-aminopyrrolo[2,1-f][1,2,4]triazin-7-yl)-2-cyano-3,4-dihydroxytetrahydrofuran-2-yl)methyl methyl carbonate] | 36.6 µM | 13.7 µM | – |
| CCCCCCOC(=O)OC[C@@]1(C#N)O[C@@H](c2ccc3c(N)ncnn23)[C@H](O)[C@@H]1O [Compound 19, ((2R,3S,4R,5S)-5-(4-aminopyrrolo[2,1-f][1,2,4]triazin-7-yl)-2-cyano-3,4-dihydroxytetrahydrofuran-2-yl)methyl hexyl carbonate] | 7.03 µM | 8.39 µM | – |
| CCOC(=O)OC[C@@]1(C#N)O[C@@H](c2ccc3c(N)ncnn23)[C@H](O)[C@@H]1O [Compound 22, ((2R,3S,4R,5S)-5-(4-aminopyrrolo[2,1-f][1,2,4]triazin-7-yl)-2-cyano-3,4-dihydroxytetrahydrofuran-2-yl)methyl ethyl carbonate] | 6.62 µM | 26.3 µM | – |
| N#C[C@]1(COC(=O)OC2CC2)O[C@@H](c2ccc3c(N)ncnn23)[C@H](O)[C@@H]1O [Compound 23, ((2R,3S,4R,5S)-5-(4-aminopyrrolo[2,1-f][1,2,4]triazin-7-yl)-2-cyano-3,4-dihydroxytetrahydrofuran-2-yl)methyl cyclopropyl carbonate] | 7.79 µM | 9.64 µM | – |
